The target of assay [1] is T1, Rat brain delta opioid receptor (Rattus norvegicus, UniProt P33533).
T1 construct: from tissue; host or cells: rat brain
Put plainly: Rat brain delta opioid receptor binding.

For assay [2], the target named is T2, Rat brain mu opioid receptor (Rattus norvegicus, UniProt P33535).
T2 construct: from tissue; host or cells: forebrain of male Sprague Dawley rats
Kind of assay: Rat brain mu opioid receptor binding assay ([3H]DAMGO). As for the experimental part:
• Procedure: Male, Sprague Dawley (150-250 g, VAF, Charles River, Kingston, N.Y.) are killed by CO2, and their brains removed and placed immediately in ice cold Tris HCl buffer (50 mM, pH 7.4). The forebrains are separated from the remainder of the brain by a coronal transection, beginning dorsally at the colliculi and passing ventrally through the midbrain-pontine junction. After dissection, the forebrains are homogenized in Tris buffer in a Teflon®-glass homogenizer. The homogenate is diluted to a concentration of 1 g of forebrain tissue per 80 mL Tris and centrifuged at 39,000×g for 10 min. The pellet is resuspended in the same volume of Tris buffer containing 5 mM MgCl2 with several brief pulses from a Polytron homogenizer. This particulate preparation is used for the mu-opioid binding assays. […] Kd and Ki values are calculated using GraphPad PRISM data analysis program.

Assay [3] deals with T3, human delta opioid receptor (Homo sapiens, UniProt P41143).
T3 construct: purchased Receptor Biology, Inc. (Baltimore, Md.); host or cells: CHO cells expressing the human delta receptor (membranes)
Put plainly: [35S]GTPγS binding assay in CHO-hδ cell membranes. Type of assay: biochemical. As for the experimental part: CHO-hδ cell membranes are purchased from Receptor Biology, Inc. (Baltimore, Md.). 10 mg/ml of membrane protein is suspended in 10 mM TRIS-HC pH 7.2, 2 mM EDTA, 10% sucrose.
Membranes are maintained at 4-8° C. 1 ml of membranes is added into 15 ml cold binding assay buffer. The assay buffer contained 50 mM HEPES, pH 7.6, 5 mM MgCl2, 100 mM NaCl, 1 mM DTT and 1 mM EDTA. The membrane suspension is homogenized with a Polytron 2 times and centrifuged at 3000 rpm for 10 min. The supernatant is then centrifuged at 18,000 rpm for 20 min. The pellet is saved in a tube and 10 ml assay buffer is added into the tube. The pellet and buffer are mixed with a Polytron.
The pellet membranes (20 μg/ml) are preincubated with SPA (10 mg/ml) at 25° C. for 45 min in the assay buffer. The SPA (5 mg/ml) coupled with membranes (10 μg/ml) is then incubated with 0.5 nM [^35S]GTPgS in the same HEPES buffer containing 50 μM GDP in total volume of 200 μl. Increasing concentrations of receptor agonists are used to stimulate [^35S]GTPgS binding. The basal binding is tested in the absence of agonists and non-specific binding is tested in the presence of 10 μM unlabeled GTP S. The data are analyzed on a Top counter.
On the technique in general: Binding of GTPγS marks nucleotide exchange on a G protein.

Ki, EC50 and inhibition data for 37 compounds are collected here from US7982042B2, “Thiozanthene derivatives as delta-opioid modulators” (priority 2003, dated 2011).

Like-named read-outs stand apart in the source and are kept apart here. Bounds are passed on as bounds.

T3 sequence (P41143 whole entry): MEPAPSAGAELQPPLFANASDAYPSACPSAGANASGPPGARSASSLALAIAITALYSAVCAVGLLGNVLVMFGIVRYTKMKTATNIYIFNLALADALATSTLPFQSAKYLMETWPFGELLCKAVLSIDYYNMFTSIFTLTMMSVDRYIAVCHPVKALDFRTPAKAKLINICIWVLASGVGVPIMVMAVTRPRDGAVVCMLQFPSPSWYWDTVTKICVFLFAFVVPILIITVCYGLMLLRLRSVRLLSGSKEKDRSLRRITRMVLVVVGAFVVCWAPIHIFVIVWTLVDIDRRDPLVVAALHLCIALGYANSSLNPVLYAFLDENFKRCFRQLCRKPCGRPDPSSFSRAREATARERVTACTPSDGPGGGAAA
T1 sequence (P33533 whole entry): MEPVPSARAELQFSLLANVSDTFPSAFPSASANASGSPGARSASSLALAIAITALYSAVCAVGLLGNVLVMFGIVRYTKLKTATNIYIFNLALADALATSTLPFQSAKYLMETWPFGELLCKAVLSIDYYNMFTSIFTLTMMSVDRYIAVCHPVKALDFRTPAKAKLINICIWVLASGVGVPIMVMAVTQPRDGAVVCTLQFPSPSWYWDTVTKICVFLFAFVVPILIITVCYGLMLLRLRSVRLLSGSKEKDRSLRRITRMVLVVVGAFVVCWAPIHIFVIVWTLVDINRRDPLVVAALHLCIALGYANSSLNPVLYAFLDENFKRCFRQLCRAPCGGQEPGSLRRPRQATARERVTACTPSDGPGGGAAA
T2 sequence (P33535 whole entry): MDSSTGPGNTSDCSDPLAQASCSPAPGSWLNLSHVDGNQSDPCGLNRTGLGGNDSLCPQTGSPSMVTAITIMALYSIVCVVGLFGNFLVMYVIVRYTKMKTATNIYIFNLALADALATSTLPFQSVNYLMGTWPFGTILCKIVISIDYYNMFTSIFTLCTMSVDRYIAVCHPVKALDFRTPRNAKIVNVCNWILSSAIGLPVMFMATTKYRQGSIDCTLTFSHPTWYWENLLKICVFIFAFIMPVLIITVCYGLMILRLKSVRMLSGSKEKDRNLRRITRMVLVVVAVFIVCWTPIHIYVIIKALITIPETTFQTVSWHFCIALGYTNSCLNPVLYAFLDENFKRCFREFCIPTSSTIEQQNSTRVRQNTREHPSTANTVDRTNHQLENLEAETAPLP

In the case of `CCNC(=O)c1ccc2c(c1)Oc1ccccc1C2=C1CC2CCC(C1)N2` (single isomer, unassigned) [Compound 56], the Ki in assay [1] (read-out: rDOR Ki) is 161 nM; in assay [2] (read-out: rMOR Ki) it was 712 nM.
In the case of `CCN(CC)C(=O)c1ccc2c(c1)OCc1ccccc1C2=C1CCN(C)CC1` [Compound 1, 11-(1-Methyl-piperidin-4-ylidene)-6,11-dihydro-dibenzo[b,e]oxepine-3-carboxylic acid diethylamide], the half-maximal effective concentration (EC50) in assay [3] (human delta opioid receptor GTPγS functional assay, read-out: hDOR GTPγS EC50) is above 10000 nM. Moreover, in assay [3] (read-out: inhibition of GTP binding induced with 1 uM DPDPE), the inhibition at 10 µM stood at 61%. The figures for the inhibitory constant (Ki) in assay [1] (rDOR Ki) and in assay [2] (read-out: rMOR Ki) were 25.5 nM and 6410 nM, respectively.
The compound `CCN(CC)C(=O)c1ccc2c(c1)OCc1ccccc1C2=C1CCNCC1` [Compound 2] registered an EC50 in assay [3] (hDOR GTPγS EC50, human delta opioid receptor GTPγS functional assay) of 58.6 nM. The inhibition constant (Ki) came to 0.91 nM in assay [1] (rDOR Ki) and 2630 nM in assay [2] (rMOR Ki).
For the compound `CCNC(=O)c1ccc2c(c1)OCc1ccccc1C2=C1CCN(C)CC1` [Compound 9, 11-(1-Methyl-piperidin-4-ylidene)-6,11-dihydro-dibenzo[b,e]oxepine-3-carboxylic acid ethylamide], the inhibition constant (Ki) in assay [1] (read-out: rDOR Ki) and in assay [2] (read-out: rMOR Ki) was above 100000 nM in each case.
In the case of `CCNC(=O)c1ccc2c(c1)OCc1ccccc1C2=C1CCN(C(=O)OCC(Cl)(Cl)Cl)CC1` [Compound 10, 4-(3-Ethylcarbamoyl-6H-dibenzo[b,e]oxepin-11-ylidene) -piperidine-1-carboxylic acid 2,2,2-trichloro-ethyl ester], the Ki in assay [1] (read-out: rDOR Ki) is above 100000 nM; in assay [2] (read-out: rMOR Ki), 92500 nM.
On to `CCNC(=O)c1ccc2c(c1)OCc1ccccc1C2=C1CCNCC1` [Compound 11, 11-Piperidin-4-ylidene-6,11-dihydro-dibenzo[b,e]oxepine-3-carboxylic acid ethylamide], for which the values for the Ki in assay [1] (read-out: rDOR Ki) and in assay [2] (read-out: rMOR Ki) were 317 nM and 5660 nM, respectively.
The matching figures for `CCNC(=O)c1ccc2c(c1)OCc1ccccc1C2=C1CCN(Cc2cccs2)CC1` [Compound 13]: 143 nM and 1900 nM.
Turning to `C=C(C)CN1CCC(=C2c3ccccc3COc3cc(C(=O)NCC)ccc32)CC1` [Compound 14], the Ki in assay [1] (read-out: rDOR Ki) came out at 432 nM; in assay [2] (read-out: rMOR Ki), 4820 nM.
Take `CCNC(=O)c1ccc2c(c1)OCc1ccccc1C2=C1CCN(Cc2ccc(O)c(OC)c2)CC1` [Compound 18]: the figures for the inhibition constant Ki in assay [1] (read-out: rDOR Ki) and in assay [2] (read-out: rMOR Ki) were 2000 nM and 2420 nM, respectively.
As for `C=CCN1CCC(=C2c3ccccc3COc3cc(C(=O)NCC)ccc32)CC1` [Compound 19, 11-(1-Allyl-piperidin-4-ylidene)-6,11-dihydro-dibenzo[b,e]oxepine-3-carboxylic acid ethylamide], the Ki in assay [1] (read-out: rDOR Ki) worked out at 368 nM; in assay [2] (read-out: rMOR Ki) it was 2870 nM.
For `CCNC(=O)c1ccc2c(c1)OCc1ccccc1C2=C1CCN(CCc2ccccc2)CC1` [Compound 20] the same measures were 23300 nM and 248 nM.
Regarding `CCNC(=O)c1ccc2c(c1)Oc1ccccc1C2=C1CC2CCC(C1)N2CCc1ccccc1` [Compound 27], the Ki in assay [1] (read-out: rDOR Ki) is 209 nM; in assay [2] (read-out: rMOR Ki) it was 189 nM.
`CCNC(=O)c1ccc2c(c1)Oc1ccccc1C2=C1CCNCC1` [Compound 32, 9-Piperidin-4-ylidene-9H-xanthene-3-carboxylic acid ethylamide]: the Ki in assay [1] (rDOR Ki) was determined as 73 nM; in assay [2] (read-out: rMOR Ki), 1490 nM.
Regarding `C#CCN1CCC(=C2c3ccccc3Oc3cc(C(=O)N(CC)CC)ccc32)CC1` [Compound 33, 9-(1-Prop-2-ynyl-piperidin-4-ylidene)-9H-xanthene-3-carboxylic acid diethylamide], the Ki in assay [1] (rDOR Ki) was found to be 16.5 nM; in assay [2] (rMOR Ki) it was 5420 nM.
Turning to `CCN(CC)C(=O)c1ccc2c(c1)Oc1ccc(NC(C)=O)cc1C2=C1CCNCC1` [Compound 34, 7-Acetylamino-9-piperidin-4-ylidene-9H-xanthene-3-carboxylic acid diethylamide], the Ki in assay [1] (read-out: rDOR Ki) and in assay [2] (read-out: rMOR Ki) was above 10000 nM each time.
`CCN(CC)C(=O)c1ccc2c(c1)Oc1ccc(NC(C)=O)cc1C2=C1CCN(C)CC1` [Compound 41, 7-Acetylamino-9-(1-methyl-piperidin-4-ylidene)-9H-xanthene-3-carboxylic acid diethylamide]: the values for the Ki in assay [1] (read-out: rDOR Ki) and in assay [2] (read-out: rMOR Ki) were 5200 nM and above 10000 nM, respectively.
`CCN(CC)C(=O)c1ccc2c(c1)Oc1ccccc1C2C1CCN(C)CC1` (stereo not shown) [Compound 43, 9-(1-Methylpiperidin-4-yl)-9H-xanthene-3-carboxylic acid diethylamide] came in with an inhibition constant Ki in assay [2] (rMOR Ki) above 10000 nM.
With `CN(C)C(=O)c1ccc2c(c1)Oc1ccccc1C2=C1CC2CCC(C1)N2` [Compound 57], the inhibition constant Ki in assay [1] (rDOR Ki) amounted to 397 nM; in assay [2] (rMOR Ki), 5260 nM.
With `CC(C)NC(=O)c1ccc2c(c1)Oc1ccccc1C2=C1CC2CCC(C1)N2` [Compound 58], the values for the inhibition constant Ki in assay [1] (rDOR Ki) and in assay [2] (rMOR Ki) were 1160 nM and 2980 nM, respectively.
For the compound `CC(C)CN(C)C(=O)c1ccc2c(c1)Oc1ccccc1C2=C1CC2CCC(C1)N2` [Compound 59], the inhibitory constant (Ki) in assay [1] (rDOR Ki) was 10.6 nM; in assay [2] (rMOR Ki), 3340 nM.
Regarding `CCCN(CCC)C(=O)c1ccc2c(c1)Oc1ccccc1C2=C1CC2CCC(C1)N2` [Compound 60], the results for the Ki in assay [1] (rDOR Ki) and in assay [2] (rMOR Ki) were 4.62 nM and 836 nM, respectively.
As to `CCCNC(=O)c1ccc2c(c1)Oc1ccccc1C2=C1CC2CCC(C1)N2` [Compound 63], the Ki was determined as 108 nM in assay [1] (rDOR Ki) and 1730 nM in assay [2] (rMOR Ki).
With `CNC(=O)c1ccc2c(c1)Oc1ccccc1C2=C1CC2CCC(C1)N2` [Compound 64], the Ki amounted to 118 nM in assay [1] (rDOR Ki) and 711 nM in assay [2] (rMOR Ki).
For `NC(=O)c1ccc2c(c1)Oc1ccccc1C2=C1CC2CCC(C1)N2` [Compound 65], the inhibition constant Ki turned out to be 197 nM in assay [1] (rDOR Ki) and 858 nM in assay [2] (rMOR Ki).
Turning to `CCN(CC)C(=O)c1ccc2c(c1)Oc1ccc(C)cc1C2=C1CC2CCC(C1)N2` [Compound 67], the inhibition constant Ki in assay [1] (rDOR Ki) was 54.4 nM; in assay [2] (rMOR Ki), 10900 nM.
The matching figures for `CCN(CC)C(=O)c1ccc2c(c1)Oc1cc(OC)ccc1C2=C1CC2CCC(C1)N2` [Compound 70, 9-(8-Aza-bicyclo[3.2.1]oct-3-ylidene)-6-methoxy-9H-xanthene-3-carboxylic acid diethylamide]: 2.31 nM and 5740 nM.
The matching figures for `CCN(CC)C(=O)c1ccc2c(c1)Sc1ccccc1C2=C1CC2CCC(C1)N2Cc1c[nH]cn1` [Compound 74]: 3.79 nM and 848 nM.
`CCNC(=O)c1ccc2c(c1)Sc1ccccc1C2=C1CC2CCC(C1)N2` [Compound 80]: the Ki in assay [1] (rDOR Ki) turned out to be 260 nM; in assay [2] (rMOR Ki) it was 473 nM.
For `CCNC(=O)c1ccc2c(c1)Sc1ccccc1C2=C1CC2CCC(C1)N2` [Compound 81] the same measures were 77.6 nM and 838 nM.
The matching figures for `CCN(CC)C(=O)c1ccc2c(c1)Oc1ccc(Br)cc1C2=C1CC2CCC(C1)N2` [Compound 83]: 139 nM and 17700 nM.
As for `CCN(CC)C(=O)c1ccc2c(c1)Oc1ccc(-c3ccncc3)cc1C2=C1CC2CCC(C1)N2` [Compound 85], the inhibition constant Ki in assay [1] (rDOR Ki) turned out to be 3000 nM; in assay [2] (rMOR Ki), 10700 nM.
The matching figures for `CCN(CC)C(=O)c1ccc2c(c1)Oc1ccc(-c3ccoc3)cc1C2=C1CC2CCC(C1)N2` [Compound 86]: 1760 nM and 12500 nM.
`CCN(CC)C(=O)c1ccc2c(c1)Oc1ccc(-c3ccsc3)cc1C2=C1CC2CCC(C1)N2` [Compound 90]: the inhibition constant (Ki) in assay [1] (rDOR Ki) came to 836 nM; in assay [2] (rMOR Ki), 12400 nM.
Take `CCN(CC)C(=O)c1ccc2c(c1)Oc1ccc(-c3ccc[nH]3)cc1C2=C1CC2CCC(C1)N2` [Compound 93]: the Ki in assay [1] (rDOR Ki) and in assay [2] (rMOR Ki) was above 10000 nM throughout.
For the compound `CCN(CC)C(=O)c1ccc2c(c1)Oc1c(cccc1-c1ccccc1)C2=C1CC2CCC(C1)N2` [Compound 95, 9-(8-Aza-bicyclo[3.2.1]oct-3-ylidene)-5-phenyl-9H-xanthene-3-carboxylic acid diethylamide], the Ki in assay [1] (rDOR Ki) was found to be 25.4 nM; in assay [2] (rMOR Ki), 6520 nM.
Consider `CCN(CC)C(=O)c1ccc2c(c1)Oc1c(cccc1-c1cnc3ccccc3c1)C2=C1CC2CCC(C1)N2` [Compound 98], for which the Ki in assay [1] (rDOR Ki) is 24.5 nM; in assay [2] (read-out: rMOR Ki) it was 7360 nM.
On to `CCN(CC)C(=O)c1ccc2c(c1)Oc1c(F)cccc1C2=C1CC2CCC(C1)N2` [Compound 102], for which the Ki came out at 68 nM in assay [1] (rDOR Ki) and 2860 nM in assay [2] (rMOR Ki).

What is called Ki is the dissociation constant of the complex between target and ligand, obtained from inhibition or displacement. One may read the EC50 as the concentration at which the effect is half-maximal. One may read the inhibition as the relative decrease from the control value, in per cent.
